# Patent US20240228482A1, “COMPOUNDS, COMPOSITIONS AND METHODS OF TREATING CANCER” (HOTSPOT THERAPEUTICS, INC., priority 2021, published 2024)
# pIC50: −log10 of the molar value.
# Target: T1, CBL-B (Homo sapiens, UniProt Q13191)
# T1 construct: GST
# Experiment: CBL-B TR-FRET IC50 screening (E1/E2 ubiquitination, Biotin-Ubiquitin, Anti GST-Tb donor / Streptavidin-d2 acceptor)
# Assay type: biochemical
# Details: CBL-B 10 nM final; 11-point titration from 100 uM; binned A-F; read-out: CBL-B TR-FRET activity IC50
# T1 sequence (Q13191 whole entry): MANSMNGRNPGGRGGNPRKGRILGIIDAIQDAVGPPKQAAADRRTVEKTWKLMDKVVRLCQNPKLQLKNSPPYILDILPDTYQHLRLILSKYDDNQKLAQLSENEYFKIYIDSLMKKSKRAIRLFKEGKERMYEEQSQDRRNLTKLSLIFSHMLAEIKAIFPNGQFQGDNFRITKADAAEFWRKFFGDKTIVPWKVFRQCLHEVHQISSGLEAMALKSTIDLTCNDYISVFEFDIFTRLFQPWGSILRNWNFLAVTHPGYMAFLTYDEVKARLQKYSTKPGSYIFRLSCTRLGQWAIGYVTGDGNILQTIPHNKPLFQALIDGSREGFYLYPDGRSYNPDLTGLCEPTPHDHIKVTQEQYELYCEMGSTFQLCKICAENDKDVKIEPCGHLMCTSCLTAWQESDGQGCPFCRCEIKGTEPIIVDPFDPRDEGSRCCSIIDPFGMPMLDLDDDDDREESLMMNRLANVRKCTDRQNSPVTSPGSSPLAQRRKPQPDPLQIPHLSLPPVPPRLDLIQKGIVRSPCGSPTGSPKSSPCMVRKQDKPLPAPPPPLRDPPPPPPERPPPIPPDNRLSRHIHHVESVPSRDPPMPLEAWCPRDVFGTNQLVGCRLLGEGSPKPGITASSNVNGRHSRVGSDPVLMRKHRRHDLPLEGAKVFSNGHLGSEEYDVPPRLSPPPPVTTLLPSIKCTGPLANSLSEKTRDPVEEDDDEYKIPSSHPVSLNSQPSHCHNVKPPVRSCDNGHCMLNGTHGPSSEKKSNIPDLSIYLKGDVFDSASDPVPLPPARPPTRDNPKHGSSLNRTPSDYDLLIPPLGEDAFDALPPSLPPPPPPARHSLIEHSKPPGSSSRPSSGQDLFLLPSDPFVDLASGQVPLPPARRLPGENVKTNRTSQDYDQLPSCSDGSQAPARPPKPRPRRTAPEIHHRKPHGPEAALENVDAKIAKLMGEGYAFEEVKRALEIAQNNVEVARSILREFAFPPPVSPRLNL
row,pIC50,SMILES
1,> 7.00,C[C@H]1CCCN(Cc2cc(C(F)(F)F)c3cn(-c4cccc(C5(Cc6nncn6C)COC5)c4)c(=O)n3c2)C1 [Compound 29]
2,5.52 to 6.00,CNC(=O)c1cc(C(F)(F)F)c2cn(-c3cccc(C4(Cc5nncn5C)COC4)c3)c(=O)n2c1 [Compound 30]
3,> 7.00,COC[C@@H]1CCCN1Cc1cc(C(F)(F)F)c2cn(-c3cccc([C@@H](c4nncn4C)C4CCC4)c3)c(=O)n2c1 [Compound 382_P1]
4,> 7.00,CN(C)C1CC=C(c2cc(C(F)(F)F)c3cn(-c4cccc(C5(Cc6nncn6C)COC5)c4)c(=O)n3c2)CC1 (centres unmarked) [Compound 79]
5,> 7.00,"Cn1cnnc1CC1(c2cccc(-n3cc4c(C(F)(F)F)cc(CN5CCCC(O)CC5)cn4c3=O)c2)COC1 (single isomer, unassigned) [Compound 177]"
6,5.52 to 6.00,COc1cc(C(F)(F)F)c2cn(-c3cccc(C4(Cc5nncn5C)COC4)c3)c(=O)n2c1 [Compound 88]
7,6.00 to 6.52,Cn1cnnc1C(c1cccc(-n2cc3c(C(F)(F)F)cc(Br)cn3c2=O)c1)C1COC1 (centres unmarked) [Compound 127]
8,> 7.00,Cn1cnnc1[C@@H](c1cccc(-n2cc3c(C(F)(F)F)cc(CN4CC5(CSC5)C4)cn3c2=O)c1)C1CCC1 [Compound 276]
9,> 7.00,"C[C@@H]1CN([C@H](C)c2cc(C(F)(F)F)c3cn(-c4cccc([C@H](c5nncn5C)C5CCC5)c4)c(=O)n3c2)CCO1 (single isomer, unassigned) [Compound 233]"
10,> 7.00,"C[C@H]1CCCCN(Cc2cc(C(F)(F)F)c3cn(-c4cccc([C@H](c5nncn5C)C5CCC5)c4)c(=O)n3c2)C1 (single isomer, unassigned) [Compound 273]"
11,6.52 to 7.00,"C[C@H]1CCCN(C(c2cc(C(F)(F)F)c3cn(-c4cccc(C5(Cc6nncn6C)COC5)c4)c(=O)n3c2)C(F)(F)F)C1 (single isomer, unassigned) [Compound 195]"
12,> 7.00,"[2H]C([2H])([2H])n1cnnc1[C@]1(c2cccc(-n3cc4c(C(F)(F)F)cc(CN5CCC[C@H](C)C5)cn4c3=O)c2)C[C@@H](C)C1 (single isomer, unassigned) [Compound 214]"
13,6.52 to 7.00,[2H]C([2H])([2H])n1cnnc1CC1(c2cccc(-n3cc4c(C(F)(F)F)cc(Br)cn4c3=O)c2)COC1 [Compound 145]
14,> 7.00,"[2H]C([2H])([2H])n1cnnc1C1(c2cccc(-n3cc4c(C(F)(F)F)cc(CN5CCC[C@H](C)C5)cn4c3=O)c2)CC(C)C1 (single isomer, unassigned) [Compound 189]"
15,< 5.00,"COCCn1cc(C)c([C@@H](c2cccc(-n3cc4c(C(F)(F)F)cc(CN5CCC[C@H](C)C5)cn4c3=O)c2)C2CCC2)n1 (single isomer, unassigned) [Compound 335]"
16,< 5.00,C[C@H]1CCCN(Cc2cc(C(F)(F)F)c3cn(-c4cccc(N(c5nncs5)C5CCC5)c4)c(=O)n3c2)C1 [Compound 344]
17,> 7.00,"Cn1cnnc1CC1(c2cccc(-n3cc4c(C(F)(F)F)cc(CN5CCCC(O)CC5)cn4c3=O)c2)COC1 (single isomer, unassigned) [Compound 176]"
18,> 7.00,Cn1cnnc1CC1(c2cccc(-n3cc4c(C(F)(F)F)cc(CN5CC[C@@H](C#N)C5)cn4c3=O)c2)COC1 [Compound 24]
19,> 7.00,"CC(c1cc(C(F)(F)F)c2cn(-c3cccc(C4(Cc5nncn5C(F)F)COC4)c3)c(=O)n2c1)N1CCC(F)CC1 (single isomer, unassigned) [Compound 96]"

row,pIC50,SMILES
1,< 5.00,C[C@H]1CCCN(Cc2cc(C(F)(F)F)c3cn(-c4cccc([C@H](c5ncn[nH]5)C5CCC5)c4)c(=O)n3c2)C1 [Compound 270]
2,< 5.00,"C[C@H]1CCCN(Cc2cc(C(F)(F)F)c3cn(-c4cc(C#N)cc([C@H](c5nncn5C)C5CCC5)c4)c(=O)n3c2)C1 (single isomer, unassigned) [Compound 289]"
3,< 5.00,C[C@H]1CCCN(Cc2cc(C(F)(F)F)c3cn(-c4cccc(C5(c6nncs6)CC6(CC6)C5)c4)c(=O)n3c2)C1 [Compound 311]
4,> 7.00,Cn1cnnc1CC1(c2cccc(-n3cc4c(C(F)(F)F)cc(CN5CCOC(C)(C)C5)cn4c3=O)c2)COC1 [Compound 153]
5,> 7.00,Cn1cnnc1CC1(c2cccc(-n3cc4c(C(F)(F)F)cc(CN5CCCC[C@@H](O)C5)cn4c3=O)c2)COC1 [Compound 167]
6,> 7.00,"CO[C@H]1CCCN(Cc2cc(C(F)(F)F)c3cn(-c4cccc([C@H](c5nncn5C)C5CCC5)c4)c(=O)n3c2)CC1 (single isomer, unassigned) [Compound 263]"
7,6.52 to 7.00,Cn1cnnc1CC1(c2cccc(-n3cc4ccccn4c3=O)c2)COC1 [Compound 71]
8,> 7.00,[2H]C([2H])([2H])n1cnnc1CC1(c2cccc(-n3cc4c(C(F)(F)F)cc([C@H](C)N5CCO[C@H](C)C5)cn4c3=O)c2)COC1 [Compound 287_P1]
9,6.00 to 6.52,"C[C@H]1CCCN(Cc2cc(C(F)(F)F)c3cn(-c4cccc([C@H](c5nncn5C)[C@H]5C[C@H](CO)C5)c4)c(=O)n3c2)C1 (single isomer, unassigned) [Compound 354]"
10,> 7.00,"CC(c1cc(C(F)(F)F)c2cn(-c3cccc([C@H](c4nncn4C)C4CCC4)c3)c(=O)n2c1)N1CCC[C@H](C)C1 (single isomer, unassigned) [Compound 193]"
11,6.52 to 7.00,O=c1n(-c2cccc([C@H](c3nncs3)C3CCC3)c2)cc2c(C(F)(F)F)cc(CN3CCC(F)CC3)cn12 [Compound 333]
12,< 5.00,C[C@@H]1CN(Cc2cc(C(F)(F)F)c3cn(-c4cccc(N(c5nncn5C)C5CCC5)c4)c(=O)n3c2)CCO1 [Compound 314]
13,> 7.00,"C=C(C)C[C@@H](c1cccc(-n2cc3c(C(F)(F)F)cc(CN4CCC[C@H](C)C4)cn3c2=O)c1)c1nncn1C (single isomer, unassigned) [Compound 68]"
14,< 5.00,C[C@H]1CCCN(Cc2cc(C(F)(F)F)c3cn(-c4cccc([C@H](CC5CC5)c5nncn5C)c4)c(=O)n3c2)C1 [Compound 332_P1]
15,> 7.00,"C[C@H]1CCCN(Cc2cc(C(F)(F)F)c3cn(-c4cc([C@@H](c5nncn5C)C5CCC5)cc(C(F)(F)F)c4)c(=O)n3c2)C1 (single isomer, unassigned) [Compound 223]"
16,5.00 to 5.52,Cn1cnnc1CC1(c2cccc(-n3cc4c(C=O)cccn4c3=O)c2)COC1 [Compound 94]
17,> 7.00,"Cn1cnnc1[C@@H](c1cccc(-n2cc3c(C(F)(F)F)cc(CN4CCC5(CC5)C4)cn3c2=O)c1)C1CCC1 (single isomer, unassigned) [Compound 163]"
18,> 7.00,Cn1cnnc1CC1(c2cccc(-n3cc4c(C(F)(F)F)cc(CN5CCC[C@H](F)C5)cn4c3=O)c2)COC1 [Compound 22]
19,> 7.00,COC1CCN(Cc2cc(C(F)(F)F)c3cn(-c4cccc([C@H](c5nncn5C)C5CCC5)c4)c(=O)n3c2)CC1 [Compound 225]

# Same assay, conditions: second part of Table 2 (head 'Patent Cmpd No / Updated Activity'); same CBL-B TR-FRET IC50 bins A-F; read-out: Updated Activity
row,pIC50,SMILES
1,> 7.00,"COC(=O)N1CC[C@@H](c2cc(C(F)(F)F)c3cn(-c4cccc([C@H](c5nncn5C)C5CCC5)c4)c(=O)n3c2)C1 (single isomer, unassigned) [Compound 409]"
2,> 7.00,C[C@H]1CCCN([C@@H](C)c2cc(C(F)(F)F)c3cn(-c4cccc(C5(c6nncn6C)CCC5)c4)c(=O)n3c2)C1 [Compound 506_P2]
3,< 5.00,Cn1cnnc1[C@@H](c1cc(-n2cc3c(C(F)(F)F)cccn3c2=O)cs1)C1CCC1 [Compound 403_P1]
4,> 7.00,CN1CCCN(Cc2cc(C(F)(F)F)c3cn(-c4cccc([C@H](c5nncn5C)C5CCC5)c4)c(=O)n3c2)C1=O [Compound 482]
5,< 5.00,"COCc1csc([C@H](c2cccc(-n3cc4c(C(F)(F)F)cc(CN5CCC[C@H](C)C5)cn4c3=O)c2)C2CCC2)n1 (single isomer, unassigned) [Compound 390]"
6,> 7.00,Cn1cnnc1[C@@H](c1cccc(-n2cc3c(C(F)(F)F)cc(CN4CCCC(n5cnnc5)C4)cn3c2=O)c1)C1CCC1 (some centres unmarked) [Compound 625]
7,5.52 to 6.00,C[C@H]1CCCN(Cc2cc(C(F)(F)F)c3cn(-c4cc([C@H](c5nncn5C)C5CCC5)ccn4)c(=O)n3c2)C1 [Compound 627_P2]
8,< 5.00,"C[C@H]1CCCN(Cc2cc(C(F)(F)F)c3cn(-c4cccc([C@@H](c5nncn5C)[C@H]5C[C@@H](O)C5)c4)c(=O)n3c2)C1 (single isomer, unassigned) [Compound 436]"
9,> 7.00,C[C@H]1CCCN(Cc2cc(C(F)(F)F)c3cn(-c4cccc(C5(c6nncs6)CCC5)c4)c(=O)n3c2)C1 [Compound 626]
10,< 5.00,CC(=O)N1CC([C@@H](c2cccc(-n3cc4c(C(F)(F)F)cc(CN5CCC[C@H](C)C5)cn4c3=O)c2)c2nncn2C)C1 [Compound 434_P1]
11,5.00 to 5.52,"CC(=O)NCc1cc([C@H](c2nncn2C)C2CCC2)cc(-n2cc3c(C(F)(F)F)cccn3c2=O)c1 (single isomer, unassigned) [Compound 479]"
12,> 7.00,"C[C@H](c1cc(C(F)(F)F)c2cn(-c3cccc([C@H](c4nncn4C)C4CCC4)c3)c(=O)n2c1)N1CCC[C@@H](C(F)(F)F)C1 (single isomer, unassigned) [Compound 613]"
13,< 5.00,"Cn1cnnc1[C@H](c1cc(F)cc(-n2cc3c(C(F)(F)F)cc(CN4CC(F)(F)C4)cn3c2=O)c1)C1CCC1 (single isomer, unassigned) [Compound 619]"
14,> 7.00,"C[C@@H](c1cc(C(F)(F)F)c2cn(-c3cccc([C@H](c4nncn4C)C4CCC4)c3)c(=O)n2c1)N1CC[C@H](F)C1 (single isomer, unassigned) [Compound 486]"
15,< 5.00,"C[C@H]1CCCN(Cc2cc(C(F)(F)F)c3cn(-c4cccc([C@@H](c5nncn5C(F)F)C5CCC5)c4)c(=O)n3c2)C1 (single isomer, unassigned) [Compound 463]"
16,6.52 to 7.00,Cn1cnnc1[C@@H](c1cccc(-n2cc3c(C(F)(F)F)cc(C(=O)N4CCC5(CC5)C4)cn3c2=O)c1)C1CCC1 [Compound 429]
17,> 7.00,COCCN(Cc1cc(C(F)(F)F)c2cn(-c3cccc([C@H](c4nncn4C)C4CCC4)c3)c(=O)n2c1)S(C)(=O)=O [Compound 593]
18,< 5.00,"Cc1cnoc1[C@H](c1cccc(-n2cc3c(C(F)(F)F)cc(CN4CCC[C@H](C)C4)cn3c2=O)c1)C1CCC1 (single isomer, unassigned) [Compound 383]"
